Measured values taken from PubChem BioAssay (NCI).
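In this assay, cells in 96-well plates receive the compound at five concentrations for 48 hours. Endpoints are linearly interpolated between the surrounding concentrations. TGI marks complete inhibition of growth.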

Tests used:
Experiment in all cases: inhibition of tumour cell growth, NCI panel, 48 h
HOP-62 NSCLC = tested on: HOP-62 NSCLC
A498 renal = tested on: A498 renal
SF-268 CNS = tested on: SF-268 CNS
NCI-H460 lung = tested on: NCI-H460 lung
HOP-92 NSCLC = tested on: HOP-92 NSCLC
OVCAR-5 ovarian = tested on: OVCAR-5 ovarian
MDA-MB-231 breast = tested on: MDA-MB-231 breast
MOLT-4 leukemia = tested on: MOLT-4 leukemia
HS 578T breast = tested on: HS 578T breast
MALME-3M melanoma = tested on: MALME-3M melanoma
RXF 393 renal = tested on: RXF 393 renal
RPMI-8226 leukemia = tested on: RPMI-8226 leukemia
IGROV1 ovarian = tested on: IGROV1 ovarian
SR leukemia = tested on: SR leukemia
SNB-75 CNS = tested on: SNB-75 CNS
PC-3 prostate = tested on: PC-3 prostate
SK-MEL-28 melanoma = tested on: SK-MEL-28 melanoma
CCRF-CEM leukemia = tested on: CCRF-CEM leukemia
T-47D breast = tested on: T-47D breast
DU-145 prostate = tested on: DU-145 prostate
UACC-62 melanoma = tested on: UACC-62 melanoma
MCF7 breast = tested on: MCF7 breast
M14 melanoma = tested on: M14 melanoma
KM12 colon = tested on: KM12 colon
MDA-N = tested on: MDA-N
SNB-19 CNS = tested on: SNB-19 CNS
NCI-H23 lung = tested on: NCI-H23 lung
A549 NSCLC = tested on: A549 NSCLC
SW-620 colon = tested on: SW-620 colon
OVCAR-8 ovarian = tested on: OVCAR-8 ovarian
TK-10 renal = tested on: TK-10 renal
LOX IMVI melanoma = tested on: LOX IMVI melanoma
HCT-15 colon = tested on: HCT-15 colon
U251 CNS = tested on: U251 CNS
786-0 renal = tested on: 786-0 renal
SF-539 CNS = tested on: SF-539 CNS
COLO 205 colon = tested on: COLO 205 colon
HT29 colon = tested on: HT29 colon
MDA-MB-435 = tested on: MDA-MB-435
CAKI-1 renal = tested on: CAKI-1 renal
HCT-116 colon = tested on: HCT-116 colon
SK-MEL-5 melanoma = tested on: SK-MEL-5 melanoma
UACC-257 melanoma = tested on: UACC-257 melanoma
HL-60(TB) leukemia = tested on: HL-60(TB) leukemia
NCI-H522 lung = tested on: NCI-H522 lung
EKVX NSCLC = tested on: EKVX NSCLC
SK-OV-3 ovarian = tested on: SK-OV-3 ovarian
UO-31 renal = tested on: UO-31 renal
NCI-H226 lung = tested on: NCI-H226 lung
OVCAR-4 ovarian = tested on: OVCAR-4 ovarian
NCI/ADR-RES ovarian = tested on: NCI/ADR-RES ovarian
ACHN renal = tested on: ACHN renal
K-562 leukemia = tested on: K-562 leukemia
SN12C renal = tested on: SN12C renal
OVCAR-3 ovarian = tested on: OVCAR-3 ovarian
BT-549 breast = tested on: BT-549 breast
SK-MEL-2 melanoma = tested on: SK-MEL-2 melanoma
SF-295 CNS = tested on: SF-295 CNS
HCC-2998 colon = tested on: HCC-2998 colon

Measured: TGI

CCOC(=O)C1(CC(=O)O)CCCC1=O (configuration not stated)
not listed: HCC-2998 colon
> 100 µM: all other assays above

c1ccc(-c2cnc(SC(c3ccccc3)c3ccccc3)[nH]2)cc1
44.1 µM: COLO 205 colon
27 µM: SK-MEL-5 melanoma
46.8 µM: NCI-H460 lung
35.8 µM: HCC-2998 colon
59 µM: LOX IMVI melanoma
69.6 µM: MDA-N
54 µM: HOP-92 NSCLC
53.2 µM: SK-MEL-2 melanoma
42.1 µM: UACC-62 melanoma
54.7 µM: T-47D breast
40.7 µM: HL-60(TB) leukemia
60 µM: EKVX NSCLC
54.6 µM: NCI-H522 lung
64.3 µM: SR leukemia
85.4 µM: NCI/ADR-RES ovarian
55.5 µM: UACC-257 melanoma
67.3 µM: NCI-H226 lung
78.5 µM: RXF 393 renal
38.8 µM: HCT-15 colon
84.7 µM: PC-3 prostate
74.7 µM: MCF7 breast
48.5 µM: RPMI-8226 leukemia
73.9 µM: MALME-3M melanoma
52.5 µM: NCI-H23 lung
65.4 µM: SN12C renal
> 100 µM: all other assays above
